Laboratory results taken from US4574080A, “Combination formulation” (A/S Alfred Benzon, priority 1982, dated 1986).

Columns and labels:
[1] = Diuretic effect (urine volume) in healthy subjects; type: in vivo, human (healthy subjects); conditions: clopamide 20 mg
Description: Complete balanced cross-over study with single dose administration.
Blood samples were collected 36 hours and urine samples 24 hours after administration.
10 healthy subjects without any history of renal, hepatic, gastrointestinal or heart disease.
Clopamide 20 mg and potassium chloride 2400 mg (32 mEq):
Two days before drug administration and throughout the test days the volunteers were kept on a low potassium diet (less than 30 mEq) and a standardized calorie intake of about 2000 kcal per day. No tea, coffee or alcohol was allowed. For the individual person the diet was identical on all six test days (2 period of 3 days).
The day before drug aministration the volunteers were given 100 ml water every hour from 09.00 a.m. during the next 12 hours, i.e. 1300 ml water per day. The same procedure was followed on the test day.
Blood samples were drawn before dosing and 1, 2, 3, 4, 6, 8, 12, 24 and 36 hours after. Urine was collected quantitatively 24 hours before drug administration and 24 hours after in aliquots: 0-1 h, 1-2 h, 2-3 h, 3-4 h, 4-6 h, 6-8 h, 8-12 h, and 12-24 h.
Data which fulfil the requirement for using parametric tests were analyzed by a three-way analysis of variance, splitting the total variation up into variations between subjects, treatment periods, treatment and residual. Logarithmic transformations of the variables have been used in appropriate cases.

[2] = Adhesion of clopamide to (film-coated) potassium chloride crystals after dry coating / mechanical stress; type: physicochemical; conditions: for A: amount of clopamide adhered immediately after the dry coating / B: clopamide adhered per dose of finished granulate / C: clopamide removed during mixing of the granulate (A-B): Table 2, Talc 2.0 ×
Description: A sample containing film-coated KCl-crystals with clopamide adhered to the surface was placed on a sieve.
The sieve and sample were shaken (Pascal sieve, model 1) for 15 minutes. The quantity of clopamide adhered to the film-coated crystals was then determined as described under Content Uniformity (clopamide)
The amount of clopamide adhered was determined as described under MATERIALS AND METHODS. In Table 1, the influence of the anti-adhesive and the coating time on the adhesion tendency of clopamide is shown.
As a considerable amount of the clopamide (about 20%) is removed by the admixture of the necessary auxiliary materials for the tabletting process (vide Table 1), it was examined whether a more gentle, but more laborious method in which the auxiliary materials are premixed separately, thus reducing the final mixing time, would reduce this removal.
The examinations were carried out as described above for the examination of the adhesion tendency of clopamide, and the amount of clopamide adhered was again determined as described under MATERIALS AND METHODS; the dry coating time was 60 minutes. The results are shown in Table 3 wherein A, B and C are as described above, and D designates the relative amount of adhered clopamide abrased during the final mixing [formula]

[3] = treatment days compared to control days
[4] = Colloidal silicon dioxide 0.13 × the amount of clopamide, coating time 10 min
[5] = Colloidal silicon dioxide 0.13 × the amount of clopamide, coating time 30 min
[6] = Colloidal silicon dioxide 0.13 × the amount of clopamide, coating time 60 min
[7] = gentle admixture of auxiliary materials (5 min), coating time 60 min
[8] = usual admixture of auxiliary materials (11 min), coating time 60 min
[9] = Talc 2.0 × the amount of clopamide, coating time 10 min
[10] = Talc 2.0 × the amount of clopamide, coating time 30 min
[11] = Talc 2.0 × the amount of clopamide, coating time 60 min
[12] = Talc […] the amount of clopamide, coating time 10 min
[13] = Talc […] the amount of clopamide, coating time 30 min
[14] = Talc […] the amount of clopamide, coating time 60 min

A: amount of clopamide adhered in percent of the theoretical dose immediately after the dry coating [2, 4]: 70.4%
B: percentage of the theoretical dose of clopamide adhered per dose of finished granulate [2, 4]: 60.2%
C: percentage of a dose of clopamide removed during the mixing of the granulate (A-B) [2, 4]: 10.2%
A: amount of clopamide adhered in percent of the theoretical dose immediately after the dry coating [2, 5]: 75.2%
B: percentage of the theoretical dose of clopamide adhered per dose of finished granulate [2, 5]: 58.8%
C: percentage of a dose of clopamide removed during the mixing of the granulate (A-B) [2, 5]: 16.4%
A: amount of clopamide adhered in percent of the theoretical dose immediately after the dry coating [2, 6]: 85.8%
B: percentage of the theoretical dose of clopamide adhered per dose of finished granulate [2, 6]: 66.6%
C: percentage of a dose of clopamide removed during the mixing of the granulate (A-B) [2, 6]: 19.2%
A: amount of clopamide adhered immediately after the dry coating [2, 7]: 83.0%
B: clopamide adhered per dose of finished granulate [2, 7]: 70.0%
C: clopamide removed during mixing of the granulate (A-B) [2, 7]: 13.0%
A: amount of clopamide adhered immediately after the dry coating [2, 8]: 86.2%
B: clopamide adhered per dose of finished granulate [2, 8]: 70.6%
C: clopamide removed during mixing of the granulate (A-B) [2, 8]: 15.6%
A: amount of clopamide adhered in percent of the theoretical dose immediately after the dry coating [2, 9]: 76.4%
B: percentage of the theoretical dose of clopamide adhered per dose of finished granulate [2, 9]: 53.8%
C: percentage of a dose of clopamide removed during the mixing of the granulate (A-B) [2, 9]: 22.6%
A: amount of clopamide adhered in percent of the theoretical dose immediately after the dry coating [2, 10]: 87.6%
B: percentage of the theoretical dose of clopamide adhered per dose of finished granulate [2, 10]: 65.4%
C: percentage of a dose of clopamide removed during the mixing of the granulate (A-B) [2, 10]: 22.2%
A: amount of clopamide adhered in percent of the theoretical dose immediately after the dry coating [2, 11]: 86.2%
B: percentage of the theoretical dose of clopamide adhered per dose of finished granulate [2, 11]: 70.6%
C: percentage of a dose of clopamide removed during the mixing of the granulate (A-B) [2, 11]: 15.6%
A: amount of clopamide adhered in percent of the theoretical dose immediately after the dry coating [2, 12]: 96.4%
B: percentage of the theoretical dose of clopamide adhered per dose of finished granulate [2, 12]: 65.0%
C: percentage of a dose of clopamide removed during the mixing of the granulate (A-B) [2, 12]: 31.4%
A: amount of clopamide adhered in percent of the theoretical dose immediately after the dry coating [2, 13]: 88.4%
B: percentage of the theoretical dose of clopamide adhered per dose of finished granulate [2, 13]: 69.8%
C: percentage of a dose of clopamide removed during the mixing of the granulate (A-B) [2, 13]: 18.6%
A: amount of clopamide adhered in percent of the theoretical dose immediately after the dry coating [2, 14]: 100.2%
B: percentage of the theoretical dose of clopamide adhered per dose of finished granulate [2, 14]: 78.6%
C: percentage of a dose of clopamide removed during the mixing of the granulate (A-B) [2, 14]: 21.6%
amount of clopamide removed by the admixture of the auxiliary materials ([2]; vide Table 1): about 20%
Compound: C[C@@H]1CCC[C@H](C)N1NC(=O)c1ccc(Cl)c(S(N)(=O)=O)c1 [Clopamide, 4-chloro-N--(cis-2,6-dimethylpiperidino)-3-sulfamoyl-benzamide]
total 24 h urine, percent of that of control days ([1]; 95% CI 138.9 to 185.3%): 160.4%
24 hours urine volume (in words) [1, 3]: statistically significant increase
hourly maximal urine volume (in words) [1, 3]: statistically significant increase
effect of increased coating time on adhesion (in words) ([2]; talc as anti-adhesive): not only an increased adhesion, but also a more resistant adhesion
